This is an account of results in patent US20260022142A1, “MACROCYCLIC IMMUNOMODULATORS” (Bristol-Myers Squibb Company, priority 2022, published 2026).

pIC50: −log10 of the molar value. Bridge positions count the residues as written; N and C are the ends. Square brackets hold non-standard residues; d marks the D form. Peptide text beside a SMILES is read from it. * marks the point of attachment. ξ: configuration not given here. Phe(4-COOH) = N[C@@H](Cc1ccc(C(=O)O)cc1)C(=O)O; Bip = N[C@@H](Cc1ccc(-c2ccccc2)cc1)C(=O)O; hArg = N=C(N)NCCCC[C@H](N)C(=O)O; 4Pal = N[C@@H](Cc1ccncc1)C(=O)O; Cha = N[C@@H](CC1CCCCC1)C(=O)O; Thr(3ξ) = CC(O)[C@H](N)C(=O)O; 12Ado = NCCCCCCCCCCCC(=O)O; Carboxymethyl = O=C(O)C*; Orn = NCCC[C@H](N)C(=O)O; Aun = NCCCCCCCCCCC(=O)O; Dab = NCC[C@H](N)C(=O)O; Dap = NC[C@H](N)C(=O)O; AEEA = NCCOCCOCC(=O)O

T1 sequence (Q15116 25-288): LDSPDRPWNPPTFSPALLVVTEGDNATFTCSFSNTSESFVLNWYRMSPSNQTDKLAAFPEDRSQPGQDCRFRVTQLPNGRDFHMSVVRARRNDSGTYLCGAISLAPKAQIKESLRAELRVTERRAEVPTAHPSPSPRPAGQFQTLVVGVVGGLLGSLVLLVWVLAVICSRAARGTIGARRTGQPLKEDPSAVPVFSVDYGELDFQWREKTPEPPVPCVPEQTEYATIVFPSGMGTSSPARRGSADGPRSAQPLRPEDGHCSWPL

This assay has as its target T1, PD-1/PD-L1 interaction (PE-labeled human PD-L1-Ig binding to Jurkat cell line over-expressing human PD-1) (Homo sapiens, UniProt Q15116).
T1 construct: expressed in transfected cells; host or cells: Jurkat
Put plainly: Jurkat-PD-1 Cell Binding High-Content Screening Assay (CBA). The assay is classed as cell-based. Particulars: Jurkat cell line over-expressing human PD-1; PE-labeled PD-L1-Ig 20 nM final; read-out: Jurkat hPD1-PDL1 IC50. A digest of the protocol:
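Jurkat-hPD-1 cells, DMEM/10% FCS; cpd 2 h 37° C; PE-PD-L1-Ig 20 nM final, 1 h; 4% PFA fix + Hoechst 33342, 3× dPBS wash; high-content imaging read-out.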
Regarding `CC(C)C[C@H]1NC(=O)[C@H](CCCN)NC(=O)[C@H](C(C)C)NC(=O)[C@H](Cc2ccc(-c3ccccc3)cc2)NC(=O)[C@H](C(C)C)NC(=O)[C@H](Cc2c[nH]c3ccccc23)NC(=O)[C@H](CC(=O)O)NC(=O)[C@H](Cc2ccc(OCC(=O)O)cc2)NC(=O)[C@H](CCCCNC(=N)N)NC(=O)CSC[C@@H](C(=O)NCC(=O)NCCOCCOCC(=O)N[C@@H](CCCN)C(=O)NCCOCCOCC(=O)NCCCCCCCCCCCC(=O)O)NC(=O)[C@H](CO)NC(=O)[C@H](C(C)C)NC(=O)[C@H](CC2CCCCC2)NC(=O)[C@H](CCN)NC1=O` [Compound 3190] ({CH2CO}-[hArg]Y(Carboxymethyl)DWV[Bip]V[Orn][dL][Dab][Cha]VSCG[AEEA][Orn][AEEA][12Ado]-OH; thioether N-14), the pIC50 is 7.69.
`CC(C)C[C@H]1NC(=O)[C@H](CCCN)NC(=O)[C@H](C(C)C)NC(=O)[C@H](Cc2ccc(-c3ccccc3)cc2)NC(=O)[C@H](C(C)C)NC(=O)[C@H](Cc2c[nH]c3ccccc23)NC(=O)[C@H](CC(=O)O)NC(=O)[C@H](Cc2ccc(OCC(=O)O)cc2)NC(=O)[C@H](CN)NC(=O)CSC[C@@H](C(=O)N[C@@H](CCCN)C(=O)NCCOCCOCC(=O)NCCCCCCCCCCC(=O)O)NC(=O)[C@H](C(C)O)NC(=O)[C@H](C(C)C)NC(=O)[C@H](CC2CCCCC2)NC(=O)[C@H](CCN)NC1=O` (stereo partly drawn) [Compound 3191] ({CH2CO}-[Dap]Y(Carboxymethyl)DWV[Bip]V[Orn][dL][Dab][Cha]V[Thr(3ξ)]C[Orn][AEEA][Aun]-OH; thioether N-14): the pIC50 is 7.94.
As for `CC(C)C[C@H]1NC(=O)[C@H](CCCN)NC(=O)[C@H](C(C)C)NC(=O)[C@H](Cc2ccc(-c3ccccc3)cc2)NC(=O)[C@H](C(C)C)NC(=O)[C@H](Cc2c[nH]c3ccccc23)NC(=O)[C@H](CC(=O)O)NC(=O)[C@H](Cc2ccc(OCC(=O)O)cc2)NC(=O)[C@H](CN)NC(=O)CSC[C@@H](C(=O)N[C@@H](CCCN)C(=O)NCCOCCOCC(=O)NCCCCCCCCCCC(=O)O)NC(=O)[C@H](CO)NC(=O)[C@H](C(C)C)NC(=O)[C@H](CC2CCCCC2)NC(=O)[C@H](C(C)O)NC1=O` (stereo partly drawn) [Compound 3192] ({CH2CO}-[Dap]Y(Carboxymethyl)DWV[Bip]V[Orn][dL][Thr(3ξ)][Cha]VSC[Orn][AEEA][Aun]-OH; thioether N-14), the figure is 7.74; as for `CC(C)C[C@H]1NC(=O)[C@H](CCCN)NC(=O)[C@H](C(C)C)NC(=O)[C@H](Cc2ccc(-c3ccccc3)cc2)NC(=O)[C@H](C(C)C)NC(=O)[C@H](Cc2c[nH]c3ccccc23)NC(=O)[C@H](CC(=O)O)NC(=O)[C@H](Cc2ccc(OCC(=O)O)cc2)NC(=O)[C@H](CN)NC(=O)CSC[C@@H](C(=O)NCCOCCOCC(=O)N[C@@H](CCCN)C(=O)NCCCCCCCCCCC(=O)O)NC(=O)[C@H](C(C)O)NC(=O)[C@H](C(C)C)NC(=O)[C@H](CC2CCCCC2)NC(=O)[C@H](CC(N)=O)NC1=O` (stereo partly drawn) [Compound 3193] ({CH2CO}-[Dap]Y(Carboxymethyl)DWV[Bip]V[Orn][dL]N[Cha]V[Thr(3ξ)]C[AEEA][Orn][Aun]-OH; thioether N-14), 7.84.
As for `CC(C)C[C@@H]1NC(=O)[C@H](Cc2c[nH]c3ccccc23)NC(=O)[C@H](CC(=O)O)NC(=O)[C@H](Cc2ccc(C(=O)O)cc2)NC(=O)[C@H](Cc2ccncc2)NC(=O)CSC[C@@H](C(=O)N[C@@H](CCN)C(=O)NCCOCCOCC(=O)N[C@@H](CCCN)C(=O)NCCCCCCCCCCC(=O)O)NC(=O)[C@H](CO)NC(=O)[C@H](C(C)C)NC(=O)[C@H](CC2CCCCC2)NC(=O)[C@H](CCN)NC(=O)[C@@H](CC(C)C)NC(=O)[C@H](CCCN)NC(=O)[C@H](C(C)C)NC(=O)[C@H](Cc2ccc(-c3ccccc3)cc2)NC1=O` [Compound 3195] ({CH2CO}-[4Pal][Phe(4-COOH)]DWL[Bip]V[Orn][dL][Dab][Cha]VSC[Dab][AEEA][Orn][Aun]-OH; thioether N-14), the figure is 7.24; as for `CC(C)C[C@H]1NC(=O)[C@H](CCCN)NC(=O)[C@H](C(C)C)NC(=O)[C@H](Cc2ccc(-c3ccccc3)cc2)NC(=O)[C@H](C(C)C)NC(=O)[C@H](Cc2c[nH]c3ccccc23)NC(=O)[C@H](CC(=O)O)NC(=O)[C@H](Cc2ccc(OCC(=O)O)cc2)NC(=O)[C@H](CCCCNC(=N)N)NC(=O)CSC[C@@H](C(=O)NCC(=O)NCCOCCOCC(=O)N[C@@H](CCCN)C(=O)NCCCCCCCCCCC(=O)O)NC(=O)[C@H](CN)NC(=O)[C@H](C(C)C)NC(=O)[C@H](CC2CCCCC2)NC(=O)[C@H](CCN)NC1=O` [Compound 3196] ({CH2CO}-[hArg]Y(Carboxymethyl)DWV[Bip]V[Orn][dL][Dab][Cha]V[Dap]CG[AEEA][Orn][Aun]-OH; thioether N-14), 7.94.
The figure for `CC(C)C[C@H]1NC(=O)[C@H](CCCN)NC(=O)[C@H](C(C)C)NC(=O)[C@H](Cc2ccc(-c3ccccc3)cc2)NC(=O)[C@H](C(C)C)NC(=O)[C@H](Cc2c[nH]c3ccccc23)NC(=O)[C@H](CC(=O)O)NC(=O)[C@H](Cc2ccc(OCC(=O)O)cc2)NC(=O)[C@H](CCCCNC(=N)N)NC(=O)CSC[C@@H](C(=O)NCC(=O)NCCOCCOCC(=O)N[C@@H](CCCN)C(=O)NCCCCCCCCCCC(=O)O)NC(=O)[C@H](CCN)NC(=O)[C@H](C(C)C)NC(=O)[C@H](CC2CCCCC2)NC(=O)[C@H](CCN)NC1=O` [Compound 3197] ({CH2CO}-[hArg]Y(Carboxymethyl)DWV[Bip]V[Orn][dL][Dab][Cha]V[Dab]CG[AEEA][Orn][Aun]-OH; thioether N-14) is 8.11.
`CC(C)C[C@H]1NC(=O)[C@H](CCCN)NC(=O)[C@H](C(C)C)NC(=O)[C@H](Cc2ccc(-c3ccccc3)cc2)NC(=O)[C@H](C(C)C)NC(=O)[C@H](Cc2c[nH]c3ccccc23)NC(=O)[C@H](CC(=O)O)NC(=O)[C@H](Cc2ccc(OCC(=O)O)cc2)NC(=O)[C@H](CCCCNC(=N)N)NC(=O)CSC[C@@H](C(=O)NCC(=O)NCCOCCOCC(=O)N[C@@H](CCCN)C(=O)NCCCCCCCCCCC(=O)O)NC(=O)[C@H](CCCN)NC(=O)[C@H](C(C)C)NC(=O)[C@H](CC2CCCCC2)NC(=O)[C@H](CCN)NC1=O` [Compound 3198] ({CH2CO}-[hArg]Y(Carboxymethyl)DWV[Bip]V[Orn][dL][Dab][Cha]V[Orn]CG[AEEA][Orn][Aun]-OH; thioether N-14): the pIC50 was 8.40.
As for `CC(C)C[C@H]1NC(=O)[C@H](CCCN)NC(=O)[C@H](C(C)C)NC(=O)[C@H](Cc2ccc(-c3ccccc3)cc2)NC(=O)[C@H](C(C)C)NC(=O)[C@H](Cc2c[nH]c3ccccc23)NC(=O)[C@H](CC(=O)O)NC(=O)[C@H](Cc2ccc(OCC(=O)O)cc2)NC(=O)[C@H](CCCCNC(=N)N)NC(=O)CSC[C@@H](C(=O)NCC(=O)NCCOCCOCC(=O)N[C@@H](CCCN)C(=O)NCCCCCCCCCCC(=O)O)NC(=O)[C@H](CCCCN)NC(=O)[C@H](C(C)C)NC(=O)[C@H](CC2CCCCC2)NC(=O)[C@H](CCN)NC1=O` [Compound 3199] ({CH2CO}-[hArg]Y(Carboxymethyl)DWV[Bip]V[Orn][dL][Dab][Cha]VKCG[AEEA][Orn][Aun]-OH; thioether N-14), the figure is 8.26.
For `CC(C)C[C@H]1NC(=O)[C@H](CCCN)NC(=O)[C@H](C(C)C)NC(=O)[C@H](Cc2ccc(-c3ccccc3)cc2)NC(=O)[C@H](C(C)C)NC(=O)[C@H](Cc2c[nH]c3ccccc23)NC(=O)[C@H](CC(=O)O)NC(=O)[C@H](Cc2c[nH]cn2)NC(=O)[C@H](CCCCNC(=N)N)NC(=O)CSC[C@@H](C(=O)NCC(=O)NCCOCCOCC(=O)N[C@@H](CCCN)C(=O)NCCCCCCCCCCC(=O)O)NC(=O)[C@H](CO)NC(=O)[C@H](C(C)C)NC(=O)[C@H](CC2CCCCC2)NC(=O)[C@H](CCN)NC1=O` [Compound 3200] ({CH2CO}-[hArg]HDWV[Bip]V[Orn][dL][Dab][Cha]VSCG[AEEA][Orn][Aun]-OH; thioether N-14), the pIC50 is 8.14.
For `CC(C)C[C@H]1NC(=O)[C@H](CCCN)NC(=O)[C@H](C(C)C)NC(=O)[C@H](Cc2ccc(-c3ccccc3)cc2)NC(=O)[C@H](C(C)C)NC(=O)[C@H](Cc2c[nH]c3ccccc23)NC(=O)[C@H](CC(=O)O)NC(=O)[C@H](Cc2ccc(OCC(=O)O)cc2)NC(=O)[C@H](CCCCNC(=N)N)NC(=O)CSC[C@@H](C(=O)NCC(=O)NCCOCCOCC(=O)N[C@@H](CCCN)C(=O)NCCCCCCCCCCC(=O)O)NC(=O)[C@H](CCN)NC(=O)[C@H](C(C)C)NC(=O)[C@H](CC2CCCCC2)NC(=O)[C@H](CC(N)=O)NC1=O` [Compound 3202] ({CH2CO}-[hArg]Y(Carboxymethyl)DWV[Bip]V[Orn][dL]N[Cha]V[Dab]CG[AEEA][Orn][Aun]-OH; thioether N-14), the negative-log IC50 (pIC50) was 7.71.
The figure for `CC(C)C[C@H]1NC(=O)[C@H](CCCN)NC(=O)[C@H](C(C)C)NC(=O)[C@H](Cc2ccc(-c3ccccc3)cc2)NC(=O)[C@H](C(C)C)NC(=O)[C@H](Cc2c[nH]c3ccccc23)NC(=O)[C@H](CC(=O)O)NC(=O)[C@H](Cc2ccc(OCC(=O)O)cc2)NC(=O)[C@H](CCCCNC(=N)N)NC(=O)CSC[C@@H](C(=O)NCC(=O)NCCOCCOCC(=O)N[C@@H](CCCN)C(=O)NCCCCCCCCCCC(=O)O)NC(=O)[C@H](CCCN)NC(=O)[C@H](C(C)C)NC(=O)[C@H](CC2CCCCC2)NC(=O)[C@H](CC(N)=O)NC1=O` [Compound 3203] ({CH2CO}-[hArg]Y(Carboxymethyl)DWV[Bip]V[Orn][dL]N[Cha]V[Orn]CG[AEEA][Orn][Aun]-OH; thioether N-14) is 7.55; for `CC(C)C[C@H]1NC(=O)[C@H](CCCN)NC(=O)[C@H](C(C)C)NC(=O)[C@H](Cc2ccc(-c3ccccc3)cc2)NC(=O)[C@H](C(C)C)NC(=O)[C@H](Cc2c[nH]c3ccccc23)NC(=O)[C@H](CC(=O)O)NC(=O)[C@H](Cc2ccc(OCC(=O)O)cc2)NC(=O)[C@H](CCCCNC(=N)N)NC(=O)CSC[C@@H](C(=O)NCC(=O)NCCOCCOCC(=O)N[C@@H](CCCN)C(=O)NCCCCCCCCCCC(=O)O)NC(=O)[C@H](CCCCN)NC(=O)[C@H](C(C)C)NC(=O)[C@H](CC2CCCCC2)NC(=O)[C@H](CC(N)=O)NC1=O` [Compound 3204] ({CH2CO}-[hArg]Y(Carboxymethyl)DWV[Bip]V[Orn][dL]N[Cha]VKCG[AEEA][Orn][Aun]-OH; thioether N-14) it is 7.90.

The term pIC50 denotes the negative decadic logarithm of the IC50, by convention in mol/L.
